Experimental data: US20250361486A1, “METHOD FOR CULTURING CELLS REQUIRING A SUPPLY OF IRON” (SAFI BIOTHERAPEUTICS INC., priority 2022, published 2025)

How the values were obtained:
[1] = tested on: cultured red blood cells; assay: Preservation yield of cultured red blood cells after 28 days in a preservation solution; format: cell-based; details: culture conducted with Trolox approximately 100 μM; red blood cells stored for 28 days in a preservation solution; 63% without Trolox
Description: (§1) Cultured red blood cell production was performed with and without the addition of Trolox during the perfusion bioreactor culture step of the process described below.
(§2) Briefly, the cells cultured according to the invention are total nucleated cells collected by cytapheresis from volunteer donors previously mobilised with G-CSF.
(§3) A first step of the process according to the invention is carried out over 7 days (from D1 to D7) in fed-batch at a temperature of 37° C., under an atmosphere of 5% CO2 and in a culture medium adapted from that described by Giarratana et al. (2011) “Proof of principle for transfusion of in vitro-generated red blood cells”, Blood 118:5071-5079 for the first step of the expansion procedure described in the article (page 5072). Halfway through this step, fresh culture medium is added to the culture so as to dilute the culture by half (the same volume of culture medium is added as the volume initially present). […]
Furthermore, the red blood cells from the above cultures were stored for 28 days in a preservation solution and the preservation efficiency at the end of the preservation period was determined [100×(final red blood cell count/mL)/(initial red blood cell count/mL].

[2] = tested on: cultured red blood cells; assay: Cell losses at end of red blood cell perfusion culture; format: cell-based; details: Trolox approximately 100 μM in culture medium, perfusion bioreactor step D7 to D22; average of 6 cultures; 13% loss without Trolox
Description: as §1, §2, §3
Fifteen cultures were performed (9 without Trolox and 6 with Trolox) and cell losses were measured at the end of the culture, defined as the % decrease in cell concentration between the peak cell concentration and the day the culture was stopped (2 to 3 days later).

SMILES: Cc1c(C)c2c(c(C)c1O)CCC(C)(C(=O)O)O2 (centres unmarked) [Trolox, 3,4-dihydro-6-hydroxy-2,5,7,8-tetramethyl-2H-I-benzopyran-2-carboxylic acid]
- average conservation yield [100×(final red blood cell count/mL)/(initial red blood cell count/mL)] [1]: 77%
- cell losses at the end of culture (% decrease in cell concentration between peak cell concentration and day culture was stopped) [2]: 6%
